Like-named read-outs stand apart in the source and are kept apart here.
Key:
MDA-MB-231/ATCC = experiment: SRB anticancer assay, breast; type: cell-based, human; design: Log10GI50: unit not given here; settings: for GI50: Homo sapiens, MDA-MB-231, 48 h, 48 h, read-out: GI50
KM12 = experiment: SRB anticancer assay, colon; type: cell-based, human; settings: Homo sapiens, KM12, 48 h
T-47D = experiment: SRB anticancer assay, breast; type: cell-based; settings: Homo sapiens, T47D, 48 h
OVCAR-4 = experiment: SRB anticancer assay, ovarian; type: cell-based, human; settings: Homo sapiens, OVCAR-4, 48 h
NCI-H23 = experiment: SRB anticancer assay, non-small lung; type: cell-based, human
ACHN = experiment: SRB anticancer assay, renal; type: cell-based, human; design: Log10GI50: unit not given here
SN12C = experiment: SRB anticancer assay, renal; type: cell-based, human; design: Log10GI50: unit not given here
[1] = tested on: MCF-7 (Breast carcinoma) cells; experiment: Cell cycle distribution by flow cytometry (FACS); type: cell-based; settings: MCF-7 cells, 2 μM, 24h
Protocol: FIG. 1 represents FACS analysis of cell cycle distribution of MCF-7 cells after treatment with compounds CA-4, 21a, 21d, 4c, 6d, 6e, 6f, 7d, 7h and 7j at 2 μM concentration for 24h and control cells are the cells treated with DMSO (0.25%).
In order to investigate the mechanism underlying the anti-proliferative effect of the compounds the cell cycle distribution was analyzed in K562 (Leukemia) and MCF-7 (Breast carcinoma) cell lines by flow cytometry. Compounds CA-4, 21a, 21d, 4c, 6d, 6e, 6f, 7d, 7h and 7j have shown 1.72%, 14%, 12%, 14%, 12%, 14%, 14%, 16%, 16% &12% in K562 cells and 49.63%, 21%, 20%, 18%, 21%, 21%, 21%, 24%, 23% and 23% in MCF-7 cell line respectively. […] Thus compound 7d was considered for further studies (FIG. 1).

SF-268 = experiment: SRB anticancer assay, CNS; type: cell-based, human; design: Log10GI50: unit not given here
K-562 = experiment: SRB anticancer assay, leukemia; type: cell-based, human; design: Log10GI50: unit not given here
SK-MEL-5 = experiment: SRB anticancer assay, melanoma; type: cell-based, human; settings: Homo sapiens, SK-MEL-5, 48 h
SK-MEL-28 = experiment: SRB anticancer assay, melanoma; type: cell-based, human; design: Log10GI50: unit not given here
OVCAR-8 = experiment: SRB anticancer assay, ovarian; type: cell-based, human; design: Log10GI50: unit not given here
SF-539 = experiment: SRB anticancer assay, CNS; type: cell-based, human; design: Log10GI50: unit not given here
RXF 393 = experiment: SRB anticancer assay, renal; type: cell-based, human; design: Log10GI50: unit not given here
U251 = experiment: SRB anticancer assay, CNS; type: cell-based, human; design: Log10GI50: unit not given here
HCT-116 = experiment: SRB anticancer assay, colon; type: cell-based, human; settings: Homo sapiens, HCT-116, 48 h
A498 = experiment: SRB anticancer assay, renal; type: cell-based, human; design: Log10GI50: unit not given here
SK-OV-3 = experiment: SRB anticancer assay, ovarian; type: cell-based, human; settings: Homo sapiens, SK-OV-3, 48 h
UO-31 = experiment: SRB anticancer assay, renal; type: cell-based, human; design: Log10GI50: unit not given here
NCI-H226 = experiment: SRB anticancer assay, non-small lung; type: cell-based, human; settings: Homo sapiens, NCI-H226, 48 h
NCI-H322M = experiment: SRB anticancer assay, non-small lung; type: cell-based, human; settings: Homo sapiens, 48 h
NCI/ADR-RES = experiment: SRB anticancer assay, ovarian; type: cell-based, human; design: Log10GI50: unit not given here; settings: for Log10GI50: present compounds
BT-549 = experiment: SRB anticancer assay, breast; type: cell-based, human; design: Log10GI50: unit not given here
HL-60 (TB) = experiment: SRB anticancer assay, leukemia; type: cell-based, human; design: Log10GI50: unit not given here
UACC-257 = experiment: SRB anticancer assay, melanoma; type: cell-based, human
NCI-H460 = experiment: SRB anticancer assay, non-small lung; type: cell-based, human; settings: Homo sapiens, NCI-H460, 48 h
SNB-19 = experiment: SRB anticancer assay, CNS; type: cell-based, human; design: Log10GI50: unit not given here
OVCAR-5 = experiment: SRB anticancer assay, ovarian; type: cell-based, human; settings: Homo sapiens, OVCAR-5, 48 h
OVCAR-3 = experiment: SRB anticancer assay, ovarian; type: cell-based, human; design: Log10GI50: unit not given here
SR = experiment: SRB anticancer assay, leukemia; type: cell-based, human; settings: Homo sapiens, 48 h

COc1ccc(-c2cncn2-c2ccc(-c3nc4cc(OC)c(OC)c(OC)c4s3)cc2)cc1N [Compound 7j, 2-Methoxy-5-(1-(4-(5,6,7-trimethoxybenzo[d]thiazol-2-yl)phenyl)-1H-imidazol-5-yl)benzeneamine]
GI50 (MDA-MB-231/ATCC; MDA-MB-231/ATCC (row head MDA-MB-)): > 100 µM | GI50 (MDA-MB-231/ATCC; row head printed 231/ATCC (second line of MDA-MB-231/ATCC)): 28.3 µM | Log10GI50 (MDA-MB-231/ATCC; MDA-MB-231/ATCC, present compounds): >−4.0 | GI50 (KM12): 3.8 µM | GI50 (T-47D): 8.6 µM | GI50 (OVCAR-4): 6.29 µM | GI50 (NCI-H23; Homo sapiens, NCI-H23, 48 h): 4.76 µM | Log10GI50 (NCI-H23; NCI-H23, present compounds): −5.32 log10(M) | GI50 (ACHN; Homo sapiens, 48 h): 5.59 µM | Log10GI50 (ACHN; present compounds): −5.25 | GI50 (SN12C; Homo sapiens, 48 h): 9.44 µM | Log10GI50 (SN12C; present compounds): −5.03 | cells in G2/M phase [1]: 23% | GI50 (SF-268; Homo sapiens, SF-268, 48 h): 47 µM | Log10GI50 (SF-268; SF-268, present compounds): −4.33 | GI50 (K-562; Homo sapiens, K562, K-562, 48 h): 3.38 µM | Log10GI50 (K-562; K-562, present compounds): −5.47 | GI50 (SK-MEL-5): 1.73 µM | GI50 (SK-MEL-28; Homo sapiens, SK-MEL-28, 48 h): 13.7 µM | Log10GI50 (SK-MEL-28; SK-MEL-28, present compounds): −4.86 | GI50 (OVCAR-8; Homo sapiens, OVCAR-8, 48 h): 6.19 µM | Log10GI50 (OVCAR-8; OVCAR-8, present compounds): −5.21 | GI50 (SF-539; Homo sapiens, SF-539, 48 h): > 100 µM | Log10GI50 (SF-539; SF-539, present compounds): >−4.0 | GI50 (RXF 393; Homo sapiens, RXF 393, 48 h): 5.98 µM | Log10GI50 (RXF 393; RXF 393, present compounds): −5.22 | GI50 (U251; Homo sapiens, U-251, U251, 48 h): 6 µM | Log10GI50 (U251; U251, present compounds): −5.22 | GI50 (HCT-116): 3.78 µM | Log10GI50 (A498; A498, present compounds): −5.32 | GI50 (A498; Homo sapiens, A498, 48 h): 4.83 µM | GI50 (SK-OV-3): > 100 µM | GI50 (UO-31; Homo sapiens, UO-31, 48 h): 1.99 µM | Log10GI50 (UO-31; UO-31, present compounds): −5.70 | GI50 (NCI-H226): 6.7 µM | GI50 (NCI-H322M): 25.7 µM | GI50 (NCI/ADR-RES; Homo sapiens, NCI/ADR-RES, 48 h): 3.12 µM | Log10GI50 (NCI/ADR-RES; NCI/ADR-RES (row head NCI/ADR-)): −5.51 | Log10GI50 (NCI/ADR-RES; listed as head printed RES (second line of NCI/ADR-RES)): >−4.0 | Log10GI50 (BT-549; BT-549, present compounds): −5.21 | GI50 (BT-549; Homo sapiens, BT-549, 48 h): 3.02 µM | Log10GI50 (HL-60 (TB); HL-60(TB), present compounds): −5.66 | GI50 (HL-60 (TB); Homo sapiens, HL-60, 48 h): 2.2 µM | GI50 (UACC-257; Homo sapiens, UACC-257, 48 h): > 100 µM | Log10GI50 (UACC-257; UACC-257, present compounds): >−4.0 log10(M) | GI50 (NCI-H460): 4.69 µM | GI50 (SNB-19; Homo sapiens, SNB-19, 48 h): > 100 µM | Log10GI50 (SNB-19; SNB-19, present compounds): >−4.0 | GI50 (OVCAR-5): > 100 µM | GI50 (OVCAR-3; Homo sapiens, OVCAR-3, 48 h): 5.18 µM | Log10GI50 (OVCAR-3; OVCAR-3, present compounds): −5.29 | GI50 (SR): 3.43 µM
